Our source for the MIC values is DBAASP.

Some test systems named below: Aerococcus viridans; Aeromonas hydrophila; Bacillus subtilis; Escherichia coli 363; Micrococcus luteus; Vibrio anguillarum; Vibrio harveyi; Yersinia ruckeri VI-3629.
What all share (assay): ≥ marks a high value that may be exact or a test limit, other limits are often not marked, values filed in µg/mL are converted to µM
Experiment [1] relates to Staphylococcus haemolyticus.
Experiment [2] concerns Aeromonas salmonicida NCIMB 1102.
In experiment [3] the test system is Corynebacterium glutamicum ATCC 13032.
Experiment [4] relates to Escherichia coli ATCC 25922.
In experiment [5] the test system is Micrococcus luteus ATCC 4698.
Experiment [6] concerns Planococcus citreus NCIMB 1493.
Experiment [7] deals with Psychrobacter immobilis NCIMB 308.
Experiment [8] relates to Staphylococcus aureus ATCC 9144.
In experiment [9] the test system is Vibrio anguillarum NCIMB 2129.
The subject of experiment [10] is Vibrio anguillarum NCIMB 2133.
In experiment [11] the test system is Vibrio anguillarum VI-F258-3.
For experiment [12], the system named is Yersinia ruckeri NCIMB 2196.
For experiment [13], the system named is Escherichia coli ATCC 8739.
Experiment [14] relates to Pseudomonas aeruginosa ATCC 27853.
The subject of experiment [15] is Staphylococcus aureus ATCC 25923.
Experiment [16] has as its system Staphylococcus aureus ATCC 29313.
The subject of experiment [17] is Xanthomonas axonopodis pv. citri.
Experiment [18] deals with Acinetobacter baumannii NM8.
Experiment [19] concerns Candida albicans ATCC 90028.
In experiment [20] the test system is Escherichia coli ATCC 25726.
Experiment [21] deals with Klebsiella pneumoniae ATCC 700603.
In experiment [22] the test system is Staphylococcus epidermidis RP62A/1.
Experiment [23] deals with Staphylococcus epidermidis RP62A.
The test system of experiment [24] is Stenotrophomonas maltophilia B32/4.
Experiment [25] deals with Escherichia coli CIB 84492.
The subject of experiment [26] is Staphylococcus aureus CIB 85462.

Values after ≈ are worked out from the molar mass of the structure shown.

As to `CC[C@H](C)[C@H](N)C(=O)N1CCC[C@H]1C(=O)N[C@@H](C)C(=O)N[C@@H](CCSC)C(=O)N[C@@H](CCC(=O)O)C(=O)N1CCC[C@H]1C(=O)N[C@@H](C)C(=O)N[C@@H](C)C(=O)N[C@@H](CCCN=C(N)N)C(=O)N[C@H](C(=O)N[C@@H](CCCCN)C(=O)N[C@@H](CCCN=C(N)N)C(=O)N[C@@H](CO)C(=O)N1CCC[C@H]1C(=O)NCC(=O)N[C@@H](Cc1ccc(O)cc1)C(=O)NCC(=O)NCC(=O)N[C@H]1CSSC[C@@H](C(=O)NCC(=O)NCC(=O)N[C@@H](Cc2ccc(O)cc2)C(=O)NCC(=O)O)NC(=O)[C@H](C)NC(=O)[C@H](Cc2c[nH]c3ccccc23)NC(=O)[C@H](CCCN=C(N)N)NC(=O)[C@@H]2CCCN2C(=O)[C@H](CO)NC1=O)C(C)C` [IPAMEPAARVKRSPGYGGCSPRWACGGYG], the minimum inhibitory concentration (MIC) against Aerococcus viridans is 12.5 µM (≈ 37.4 µg/mL); against Aeromonas hydrophila it was at least 50 µM; against Bacillus subtilis, at least 50 µM; against Escherichia coli 363 it was at least 50 µM; against Micrococcus luteus it was 25 µM (≈ 74.8 µg/mL); in [1] it was at least 50 µM. Besides, the MIC with Vibrio anguillarum and in the experiment on Vibrio harveyi was at least 50 µM in each case.

In the case of `CC[C@H](C)[C@H](NC(=O)[C@H](CC(C)C)NC(=O)CNC(=O)[C@@H](NC(=O)[C@@H](NC(=O)[C@H](Cc1cnc[nH]1)NC(=O)[C@H](Cc1cnc[nH]1)NC(=O)[C@H](CC(C)C)NC(=O)[C@@H](N)Cc1ccccc1)[C@@H](C)CC)C(C)C)C(=O)N[C@@H](Cc1cnc[nH]1)C(=O)N[C@@H](Cc1cnc[nH]1)C(=O)NCC(=O)N[C@@H](CCCCN)C(=O)N[C@@H](CC(C)C)C(=O)N[C@@H](CC(=O)O)C(=O)N[C@@H](CCSC)C(=O)N[C@@H](Cc1ccc(O)cc1)C(=O)N[C@@H](CCCN=C(N)N)C(=O)N[C@@H](CO)C(=O)N[C@@H](CC(N)=O)C(=O)N[C@@H](CC(N)=O)C(=O)O` [FLHHIVGLIHHGKLDMYRSNN], the MIC is 10 µM (≈ 25 µg/mL) in experiment [2]; 10 µM (≈ 25 µg/mL) in experiment [3]; above 10 µM in experiment [4]; 10 µM (≈ 25 µg/mL) in [5]; 10 µM (≈ 25 µg/mL) in experiment [6]; 10 µM (≈ 25 µg/mL) in experiment [7]. Moreover, the MIC (in experiment [8]; in [9]; in [10]; in experiment [11]; in [12]; in the experiment with Yersinia ruckeri VI-3629) was 10 µM (≈ 25 µg/mL) throughout.

`CC(C)C[C@H](NC(=O)[C@H](C)NC(=O)[C@@H](NC(=O)[C@H](CCCCN)NC(=O)CNC(=O)[C@@H](NC(=O)[C@@H](NC(=O)[C@H](CCCCN)NC(=O)CNC(=O)[C@H](CC(C)C)NC(=O)[C@H](CO)NC(=O)[C@H](CCCCN)NC(=O)[C@H](CC(C)C)NC(=O)[C@H](CCCCN)NC(=O)[C@H](CC(=O)O)NC(=O)[C@H](CC(C)C)NC(=O)[C@H](Cc1c[nH]c2ccccc12)NC(=O)[C@H](C)N)C(C)C)C(C)C)C(C)C)C(=O)NCC(=O)N[C@H](C(=O)N[C@@H](C)C(=O)N[C@@H](CCC(N)=O)C(=O)N[C@@H](CC(N)=O)C(=O)N[C@@H](Cc1ccc(O)cc1)C(=O)N[C@@H](CC(C)C)C(=O)N[C@@H](CC(N)=O)C(=O)N1CCC[C@H]1C(=O)N[C@@H](CCC(N)=O)C(=O)N[C@@H](CCC(N)=O)C(=O)O)C(C)C` [AWLDKLKSLGKVVGKVALGVAQNYLNPQQ]: the MIC in experiment [4] amounted to 5 µM (≈ 15.7 µg/mL); in experiment [13], 1.27 µM (≈ 4 µg/mL); in [14], 10 µM (≈ 31.4 µg/mL); in experiment [15], 1.27 µM (≈ 4 µg/mL); in experiment [16], 20 µM (≈ 62.8 µg/mL); in [17] it was 2 µM (≈ 6.28 µg/mL).

With `CC[C@H](C)[C@H](N)C(=O)N[C@@H](CC(C)C)C(=O)NCC(=O)N[C@@H](CCCCN)C(=O)N[C@@H](CC(C)C)C(=O)N[C@@H](CC(C)C)C(=O)N[C@@H](CO)C(=O)N[C@H](C(=O)N[C@@H](C)C(=O)N[C@@H](C)C(=O)NCC(=O)N[C@@H](CC(C)C)C(=O)N[C@@H](CC(C)C)C(=O)N[C@@H](CO)C(=O)N[C@@H](CCCCN)C(=O)N[C@@H](CC(C)C)C(N)=O)[C@@H](C)O` [ILGKLLSTAAGLLSKL], the MIC in experiment [18] is at least 128 µM; in experiment [19] it was at least 128 µM; in experiment [20], at least 256 µM; in experiment [21] it was above 128 µM; in [14], above 128 µM; in experiment [15] it was 32 µM (≈ 51.1 µg/mL). In addition, the MIC in experiment [22] was 8 µM (≈ 12.8 µg/mL); in experiment [23], 16 µM (≈ 25.6 µg/mL); in [24], at least 128 µM.

Take `CC[C@H](C)[C@@H]1NC(=O)[C@H](CC(C)C)NC(=O)[C@@H](NC(=O)[C@H](Cc2ccccc2)NC(=O)[C@@H](NC(=O)[C@@H](NC(=O)[C@@H]2CCCN2C(=O)[C@@H](NC(=O)[C@@H](NC(=O)[C@H](CCCCN)NC(=O)[C@H](C)NC(=O)[C@H](C)NC(=O)[C@@H](NC(=O)[C@H](CCCN=C(N)N)NC(=O)[C@H](CC(C)C)NC(=O)[C@@H](NC(=O)[C@H](C)NC(=O)[C@@H]2CCCN2C(=O)[C@H](CC(C)C)NC(=O)[C@@H](N)Cc2ccccc2)C(C)C)C(C)C)C(C)C)C(C)C)[C@@H](C)O)C(C)C)CSSC[C@@H](C(=O)O)NC(=O)[C@H](CCCCN)NC(=O)[C@H](CCCCN)NC(=O)[C@H](CO)NC1=O` [FLPAVLRVAAKVVPTVFCLISKKC]: the MIC in experiment [4] is 49.2 µM (≈ 128 µg/mL); in [25], 24.6 µM (≈ 64 µg/mL); in experiment [15] it was 6.15 µM (≈ 16 µg/mL); in experiment [26], 3.07 µM (≈ 7.99 µg/mL).

One may read the MIC as the lowest concentration found to suppress growth. Higher therefore signals a need for much substance.
